Laboratory results taken from US9144591B2, “Transcription modulator compositions” (Academia Sinica, priority 2006, dated 2015).

How the values were obtained:
[1] = system: PSA promoter (androgen-responsive promoter) in 22RvPSA36-103 cells; assay: PSA-luciferase reporter assay, induction by steroid hormones; assay type: cell-based, human; conditions: 20 hours; for PSA-luciferase activity stimulation: 10 nM, dose dependent, maximum
Procedure: The 22Rvl cell line was purchased from ATCC. Reporter plasmid (p5.7 kb-PSA-Luc) was constructed by inserting the 5.7 kb PSA promoter into pGL3 plasmid (Promega).
(§1) For luciferase activity assays, 8×10^4 22Rvl-derived cells were grown in 48-well multi-well plates. The cell culture medium was RPMI containing 5% charcoal coated dextran stripped fetal bovine serum (Hyclone). After the cells were grown for one day in culture, their growth medium was exchanged to include experimental or control compositions, as described below, and cell growth was continued for a further 20 hours. Cells were lysed by the addition of passive lysis buffer (Promega), then luciferase assays were performed using a luciferase assay system (Promega) and VICTOR^2 multilabel counter (PerkinElmer), and normalized to lysate protein as measured by a Coomassie (Bradford) Protein Assay Kit (Pierce).
The AR signaling pathway promotes the development of prostate cancer. Thus, we established a cell-based model to observe androgen-responsive promoter activity in human prostate cancer cells. […] 22RvPSA36-103 cells were incubated for 20 hours in the presence of an androgen.

[2] = system: AR in a complex with IKKα; conditions: 10 nM, five minutes, 22Rv/PSA36-103 cells
Excerpt: We investigated if IKKα or IKKβ could interact with activated AR in 22Rv/PSA36-103 cells after androgen stimulation.

[3] = system: androgen-responsive promoter activity in 22RvPSA36-103 cells; assay: Luciferase assay, inhibition of androgen-induced androgen-responsive promoter activity; assay type: cell-based, human; conditions: 20 hours
Procedure: as §1
The ability of the IKK inhibitors 15-deoxy-Δ^12,14-prostaglandin J2, prostaglandin A1, and wedelolactone to inhibit androgen-responsive promoter activity was tested using the above-described luciferase assay.
A tet operon-regulated H1-small hairpin RNA expression cassette was constructed and inserted into the pcDNA6tTR™ plasmid from Invitrogen (Carlsbad, Calif.). Each knockdown plasmid was transfected into 22RvPSA36-103 cells to produce stably transfected cell lines. The knockdown of IKKα or IKKβ in daughter cell lines was determined by immunoblotting. […] To induce RNAi-mediated knockdown, cells were grown in medium containing 1 μg/ml doxycycline as compared to vehicle control for 3 days. Subsequent treatment and assays were performed according to the procedure of the aforementioned luciferase assays.

22Rv1 cells = assay: Colony forming efficiency, crystal violet OD595, 22Rv1 cells; assay type: cell-based, human; conditions: 6 days, plus androgen
22RvPSA36-103 cells = assay: Colony forming efficiency, crystal violet OD595, 22RvPSA36-103 cells; assay type: cell-based, human; conditions: 6 days, plus androgen
Procedure: Given that activation of the AR signaling pathway stimulates prostate cancer cell proliferation and our finding that IKKα is implicated in this pathway, we sought to determine if IKKα inhibition would reduce prostate cancer cell proliferation. To this end, the colony forming efficiency of 22Rv1 cells and 22RvPSA36-103 cells in the presence of an androgen plus or minus an IKK inhibitor was determined by growing 2×10^4 cells in 12-well multi-well plates for 6 days. The growth medium was replaced every three days. At the end of the growth period, cell colonies were stained with 0.1% crystal violet in phosphate buffer saline, dried, and photographed. Cellular retention of crystal violet was extracted with 20% acetic acid in water and measured at OD595 as a quantitative indicator of colony forming efficiency.

In the case of `C[C@]12CCC(=O)C[C@@H]1CC[C@@H]1[C@@H]2CC[C@]2(C)[C@@H](O)CC[C@@H]12` [5α-dihydrotestosterone], the PSA-luciferase activity stimulation [1] is reported as “approximately 100 fold over baseline” and the “Co-immunoprecipitation of the AR in a complex with IKKα” value [2] is reported as “detected”.

With `CCCCC/C=C/C=C1/C(=O)C=C[C@@H]1C/C=C\CCCC(=O)O` [15-deoxy-Δ^12,14-prostaglandin J2] the “Inhibition of 5α-dihydrotestosterone-induced luciferase expression” value [3] was “inhibited 5α-dihydrotestosterone-induced luciferase expression in a dose-dependent manner”.

For `C[C@]12CC[C@@H]3c4ccc(O)cc4CC[C@H]3[C@@H]1CC[C@@H]2O` [17-β-estradiol], the “Induction of PSA-luciferase expression” value [1] was “failed to induce PSA-luciferase expression”.

`CC(=O)[C@H]1CC[C@H]2[C@@H]3CCC4=CC(=O)CC[C@]4(C)[C@H]3CC[C@]12C` [progesterone] was tested, and the “Induction of PSA-luciferase expression” value [1] was “failed to induce PSA-luciferase expression”.

With `CCCCC[C@H](O)/C=C/[C@H]1C=CC(=O)[C@@H]1CCCCCCC(=O)O` [prostaglandin A1] the “Inhibition of 5α-dihydrotestosterone-induced luciferase expression” value [3] was “inhibited 5α-dihydrotestosterone-induced luciferase expression in a dose-dependent manner”.

`C[C@]12CC[C@H]3[C@@H](CCC4=CC(=O)CC[C@@]43C)[C@@H]1CC[C@@H]2O` [testosterone] was tested, and the PSA-luciferase activity stimulation [1] was “approximately 100 fold over baseline”.

In the case of `COc1cc(O)c2c(c1)oc(=O)c1c3cc(O)c(O)cc3oc21` [wedelolactone], the “Inhibition of androgen-stimulated colony growth” value (22Rv1 cells) is reported as “highly effective”, the “Inhibition of 5α-dihydrotestosterone-induced luciferase expression” value [3] is reported as “inhibited 5α-dihydrotestosterone-induced luciferase expression in a dose-dependent manner” and the “Inhibition of androgen-stimulated colony growth” value (22RvPSA36-103 cells) is reported as “highly effective”.
